# Experimental data published in patent US6887889B2 (Pharmacopeia Drug Discovery, Inc., priority 2001, dated 2005).
# Biological target: T1, hMCHR (Homo sapiens, UniProt Q99705)
# T1 construct: host or cells: CHO (Chinese hamster ovary) cells, membranes
# Experiment: MCH Assay PCOP Protocol: [125I]-MCH binding to hMCHR-CHO membranes, WGA-SPA beads
# Conditions: hMCHR-CHO overexpressing membranes, 0.5 nM [125I]-MCH, 2 hours incubation
# Method: A reaction mixture of 10 μg hMCHR-CHO overexpressing membranes (from Receptor Biology, Inc., Beltville, Md., or internally produced) and 100 μg/well WGA-SPA beads (from Amersham Pharmacia Biotech, Inc., Piscataway, N.J.)/100 μL was prepared in MCHR assay buffer (25 mM HEPES, pH 7.4, 10 mM NaCl, 10 mM MgCl2, 5 mM MnCl2, 0.1%BSA). […] The assay plates were shaken for 5 minutes on a plate shaker, then incubated for 2 hours before cpm/well were determined in a Microbeta Trilux counter (from Perkin Elmer Wallac, Inc., Gaithersburg, Md.).
# T1 sequence (Q99705 whole entry): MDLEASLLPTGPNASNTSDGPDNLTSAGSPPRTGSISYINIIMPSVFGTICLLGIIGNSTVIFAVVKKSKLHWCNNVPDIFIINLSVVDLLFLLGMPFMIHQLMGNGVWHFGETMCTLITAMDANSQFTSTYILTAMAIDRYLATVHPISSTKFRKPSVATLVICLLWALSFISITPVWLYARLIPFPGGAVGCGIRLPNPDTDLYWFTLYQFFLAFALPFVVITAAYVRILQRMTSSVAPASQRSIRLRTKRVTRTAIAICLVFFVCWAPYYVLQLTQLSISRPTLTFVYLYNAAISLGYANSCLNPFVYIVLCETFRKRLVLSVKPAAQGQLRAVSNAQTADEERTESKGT
row,Structure (SMILES),Ki
1,COCCN1CCC2(CC1)CN(C(=O)Nc1ccc(F)c(Cl)c1)c1ccc(-c3cccc(C#N)c3)cc12 [Example 86],101 to 5500 nM
2,CN1CCC(CNC(=O)Cc2ccc(Cl)c(Cl)c2)(c2ccc(-c3cccc(C#N)c3)cc2)CC1 [Example 87],11 to 100 nM
3,COCCN1CCC(CN(C)C(=O)Nc2cc(Cl)cc(Cl)c2)(c2ccc(-c3cccc(C#N)c3)cc2)CC1 [Example 88],0.2 to 10 nM
4,COCCN1CCC(CNC(=O)Nc2cc(F)cc(C(F)(F)F)c2)(c2ccc(-c3cccc(C#N)c3)cc2)CC1 [Example 89],0.2 to 10 nM
5,COCCN1CCC(CNC(=O)Nc2ccc(F)c(Cl)c2)(c2ccc(-c3cccc(C#N)c3)cc2)CC1 [Example 90],0.2 to 10 nM
6,COCCN1CCC(CNC(=O)Nc2ccc(F)c(F)c2)(c2ccc(-c3cccc(C#N)c3)cc2)CC1 [Example 91],0.2 to 10 nM
7,COCCN1CCC(CNC(=O)Nc2ccc3c(c2)OCO3)(c2ccc(-c3cccc(C#N)c3)cc2)CC1 [Example 92],0.2 to 10 nM
8,COCCN1CCC(CNC(=O)Nc2cc(Cl)cc(Cl)c2)(c2ccc(-c3cccc(CO)c3)cc2)CC1 [Example 93],0.2 to 10 nM
9,COCCN1CCC(CNC(=O)Nc2ccc(Cl)c(C(F)(F)F)c2)(c2ccc(-c3cccc(C#N)c3)cc2)CC1 [Example 94],0.2 to 10 nM
10,COCCN1CCC(CNC(=O)Nc2ccc(OC)c(Cl)c2)(c2ccc(-c3cccc(C#N)c3)cc2)CC1 [Example 95],11 to 100 nM
11,N#Cc1cccc(-c2ccc(C3(CNC(=O)Nc4cc(F)cc(F)c4)CCN(CC4CC4)CC3)cc2)c1 [Example 96],0.2 to 10 nM
12,CN(CC1(c2ccc(-c3cccc(C#N)c3)cc2)CCN(CC2CC2)CC1)C(=O)Nc1cc(F)cc(F)c1 [Example 97],11 to 100 nM
13,N#Cc1cccc(-c2ccc(C3(CNC(=O)Nc4ccc5c(c4)OCO5)CCN(CC4CC4)CC3)cc2)c1 [Example 98],11 to 100 nM
14,CN(CC1(c2ccc(-c3cccc(C#N)c3)cc2)CCN(CC2CC2)CC1)C(=O)Nc1ccc(F)c(Cl)c1 [Example 99],11 to 100 nM
15,N#Cc1cccc(-c2ccc(C3(CNC(=O)Nc4ccc(F)c(C(F)(F)F)c4)CCN(CC4CC4)CC3)cc2)c1 [Example 100],0.2 to 10 nM
16,CCCN1CCC(CNC(=O)Nc2ccc3c(c2)OCO3)(c2ccc(-c3cccc(C#N)c3)cc2)CC1 [Example 101],11 to 100 nM
17,CCCN1CCC(CNC(=O)Nc2cc(F)cc(F)c2)(c2ccc(-c3cccc(C#N)c3)cc2)CC1 [Example 102],0.2 to 10 nM
18,CCCN1CCC(CNC(=O)Nc2ccc(F)c(C(F)(F)F)c2)(c2ccc(-c3cccc(C#N)c3)cc2)CC1 [Example 103],0.2 to 10 nM
19,CN(CC1(c2ccc(-c3cccc(C#N)c3)cc2)CCN(CC2CC2)CC1)C(=O)Nc1ccc(Cl)c(C(F)(F)F)c1 [Example 104],11 to 100 nM
20,COCCN1CCC(CNC(=O)Nc2cc(F)cc(F)c2)(c2ccc(-c3cccc(C#N)c3)cc2)CC1 [Example 105],0.2 to 10 nM
21,O=C(NCC1(c2ccc(-c3cccc(Cl)c3)cc2)CCN(C2CCC2)CC1)Nc1cc(Cl)cc(Cl)c1 [Example 107],101 to 5500 nM
22,N#Cc1cccc(-c2ccc(C3(CNC(=O)Nc4cc(Cl)cc(Cl)c4)CCN(C4CCOCC4)CC3)cc2)c1 [Example 109],0.2 to 10 nM

row,Structure (SMILES),Ki
1,CC(=O)Nc1cccc(-c2ccc(C3(CNC(=O)Nc4cc(Cl)cc(Cl)c4)CCN(C4CCOCC4)CC3)cc2)c1 [Example 110],11 to 100 nM
2,CC(C)CN1CCC(CNC(=O)Nc2cc(Cl)cc(Cl)c2)(c2ccc(-c3cccc(Cl)c3)cc2)CC1 [Example 112],11 to 100 nM
3,CCCCN1CCC(CNC(=O)Nc2cc(Cl)cc(Cl)c2)(c2ccc(-c3cccc(Cl)c3)cc2)CC1 [Example 113],11 to 100 nM
4,O=C(NCC1(c2ccc(-c3cccc(Cl)c3)cc2)CCN(C2CCOCC2)CC1)Nc1cc(Cl)cc(Cl)c1 [Example 114],101 to 5500 nM
5,N#Cc1cccc(-c2ccc(C3(CNC(=O)Nc4ccc(F)c(Cl)c4)CCN(CCC(F)(F)F)CC3)cc2)c1 [Example 117],0.2 to 10 nM
6,N#Cc1cccc(-c2ccc(C3(CNC(=O)Nc4cc(Cl)cc(Cl)c4)CCN(CCC(F)(F)F)CC3)cc2)c1 [Example 118],0.2 to 10 nM
7,O=C(NCC1(c2ccc(-c3cccc(Cl)c3)cc2)CCN(C2CCCCC2)CC1)Nc1cc(Cl)cc(Cl)c1 [Example 120],0.2 to 10 nM
8,CCN1CCC(CNC(=O)Nc2cc(Cl)cc(Cl)c2)(c2ccc(-c3cccc(Cl)c3)cc2)CC1 [Example 121],11 to 100 nM
9,CC(=O)Nc1cccc(-c2ccc(C3(CNC(=O)Nc4cc(Cl)cc(Cl)c4)CCN(C4CCCCC4)CC3)cc2)c1 [Example 122],0.2 to 10 nM
10,CCN1CCC(CNC(=O)Nc2cc(Cl)cc(Cl)c2)(c2ccc(-c3cccc(OC(F)(F)F)c3)cc2)CC1 [Example 123],11 to 100 nM
11,O=C(Nc1cc(Cl)cc(Cl)c1)N1CCC(CNCC2CC2)(c2ccc(-c3ccc4c(c3)OCO4)cc2)CC1 [Example 125],101 to 5500 nM
12,O=C(Nc1cc(Cl)cc(Cl)c1)N1CCC(CN(CC2CC2)CC2CC2)(c2ccc(-c3cccc(Cl)c3)cc2)CC1 [Example 126],101 to 5500 nM
13,COCCN1CCC(CNCc2cc(Cl)cc(Cl)c2)(c2ccc(-c3cccc(C#N)c3)cc2)CC1 [Example 127],101 to 5500 nM
14,O=C(Nc1cc(Cl)cc(Cl)c1)N1CCC(CNCC2CC2)(c2ccc(-c3cccc(Cl)c3)cc2)CC1 [Example 128],101 to 5500 nM
15,COCCN1CCC(CNCc2cc(Cl)cc(Cl)c2)(c2ccc(-c3cccc(Cl)c3)cc2)CC1 [Example 129],101 to 5500 nM
16,N#Cc1cccc(-c2ccc(C3(CN(CC4CC4)CC4CC4)CCN(C(=O)Nc4cc(Cl)cc(Cl)c4)CC3)cc2)c1 [Example 130],101 to 5500 nM
17,N#Cc1cccc(-c2ccc(C3(CNCC4CC4)CCN(C(=O)Nc4cc(Cl)cc(Cl)c4)CC3)cc2)c1 [Example 131],11 to 100 nM
18,O=C(Nc1cc(Cl)cc(Cl)c1)N1CCC(CN(CC2CC2)CC2CC2)(c2ccc(-c3ccc4c(c3)OCO4)cc2)CC1 [Example 132],101 to 5500 nM
19,CCCN(CCC)CC1(c2ccc(-c3cccc(C#N)c3)cc2)CCN(C(=O)Nc2cc(Cl)cc(Cl)c2)CC1 [Example 133],101 to 5500 nM
20,CCCNCC1(c2ccc(-c3cccc(C#N)c3)cc2)CCN(C(=O)Nc2cc(Cl)cc(Cl)c2)CC1 [Example 134],11 to 100 nM
21,COCCN1CCC(CNCc2cc(Cl)cc(Cl)c2)(c2ccc(-c3cccc(NC(C)=O)c3)cc2)CC1 [Example 135],101 to 5500 nM
